Source: patent US9321722B2, “Bis-indolic derivatives, their uses in particular as antibacterials” (UNIVERSITE JOSEPH FOURIER, priority 2011, dated 2016)
Converted amounts (≈) assume the structure as drawn.

Assays:
[1] = tested on: S. aureus ATCC 106414 (VISA); test: MIC microdilution (Table I-1); type: cell-based, Staphylococcus aureus; details: Staphylococcus aureus, read after 18 hours, read-out: MIC
Experimental: (§1) The microdilution method recommended by the Clinical and Laboratory Standard Institute [M07-A8, Vol. 29, N^o 2] was used. The activity of indolic compounds was tested against 29 bacterial strains belonging to 17 different species and 12 different genera (Staphylococcus, Streptococcus, Enterococcus, Listeria, Bacillus, Haemophilus, Escherichia, Klebsiella, Enterobacter, Serratia, Pseudomonas, and Acinetobacter). Bacterial inocula were prepared in Mueller Hinton broth (MH2, bioMerieux, Marcy L'Etoile, France), supplemented with 10% sheep blood for fastidious species (i.e., Streptococcus pneumoniae and Haemophilus influenzae). They were dispensed in 96 well microtiter plates (5×10^5 CFU/ml of final inoculum). Indolic compounds were added to the wells as to obtain two-fold serial concentrations (0.50-128 mg/L of final concentrations). Plates were incubated at 37° C. in ambient air, or at 37° C. in 5% CO2 enriched atmosphere for fastidious species. […] Drug-free cultures served as growth controls. Cultures receiving gentamicin, ciprofloxacin or cefotaxime served as positive controls.

[2] = tested on: S. aureus ATCC 29213; test: MIC microdilution (Table I-1); type: cell-based, Staphylococcus aureus; details: Staphylococcus aureus, ATCC29213, read after 18 hours, read-out: MIC
Experimental: as §1

[3] = tested on: S. aureus ATCC 33592 (MRSA); test: MIC microdilution (Table I-1); type: cell-based, Staphylococcus aureus; details: Staphylococcus aureus, read after 18 hours, read-out: MIC
Experimental: as §1

[4] = tested on: S. aureus ATCC 6538; test: MIC microdilution (Table I-1); type: cell-based, Staphylococcus aureus; details: Staphylococcus aureus, ATCC6538, read after 18 hours, read-out: MIC
Experimental: as §1

[5] = tested on: S. aureus ATCC 9144; test: MIC microdilution (Table I-1); type: cell-based, Staphylococcus aureus; details: Staphylococcus aureus, ATCC9144, read after 18 hours, read-out: MIC
Experimental: as §1

[6] = tested on: S. aureus CIP 103428; test: MIC microdilution (Table I-1); type: cell-based, Staphylococcus aureus; details: Staphylococcus aureus, CIP103428, read after 18 hours, read-out: MIC
Experimental: as §1

[7] = tested on: S. aureus CIP 65.25 (MRSA); test: MIC microdilution (Table I-1); type: cell-based, Staphylococcus aureus; details: Staphylococcus aureus, read after 18 hours, read-out: MIC
Experimental: as §1

[8] = tested on: S. aureus CIP 65.6; test: MIC microdilution (Table I-1); type: cell-based, Staphylococcus aureus; details: Staphylococcus aureus, CIP65, read after 18 hours, read-out: MIC
Experimental: as §1

[9] = tested on: S. aureus SA-1199B; test: MIC microdilution (Table I-1); type: cell-based, Staphylococcus aureus; details: Staphylococcus aureus, SA1199B, 18 h
Experimental: as §1

[10] = tested on: E. faecalis ATCC 29212; test: MIC microdilution (Table I-1); type: cell-based; details: Enterococcus faecalis, ATCC29212, read after 18 hours, read-out: MIC
Experimental: as §1

[11] = tested on: E. faecium CIP 54.32; test: MIC microdilution (Table I-1); type: cell-based; details: Enterococcus faecium, CIP54, read after 18 hours, read-out: MIC
Experimental: as §1

[12] = tested on: Escherichia coli ATCC 25922; test: MIC microdilution (Table I-1); type: cell-based; details: ATCC25922, read after 18 hours
Experimental: as §1

[13] = tested on: Haemophilus influenzae ATCC 49766; test: MIC microdilution (Table I-1); type: cell-based; details: ATCC49766; Haemophilus influenzae ATCC 49766; read after 18 hours; read-out: MIC
Experimental: as §1

[14] = tested on: Klebsiella pneumoniae ATCC 35657; test: MIC microdilution (Table I-1); type: cell-based; details: ATCC35657, read after 18 hours, read-out: MIC
Experimental: as §1

[15] = tested on: Pseudomonas aeruginosa CIP 5933; test: MIC microdilution (Table I-1); type: cell-based; details: CIP5933, read after 18 hours
Experimental: as §1

[16] = tested on: S. agalactiae (group B) ATCC 12400; test: MIC microdilution (Table I-1); type: cell-based; details: Streptococcus agalactiae, ATCC12400, read after 18 hours, read-out: MIC
Experimental: as §1

[17] = tested on: S. aureus ATCC 25923; test: MIC microdilution (Table I-1); type: cell-based; details: Staphylococcus aureus, ATCC25923, read after 18 hours
Experimental: as §1

[18] = tested on: S. mitis CIP 103335; test: MIC microdilution (Table I-1); type: cell-based; details: Streptococcus mitis, CIP103335, read after 18 hours, read-out: MIC
Experimental: as §1

[19] = tested on: S. pneumoniae ATCC 49619; test: MIC microdilution (Table I-1); type: cell-based; details: Streptococcus pneumoniae, ATCC49619, read after 18 hours
Experimental: as §1

[20] = tested on: S. pyogenes (group A) CIP 104226; test: MIC microdilution (Table I-1); type: cell-based; details: Streptococcus pyogenes, CIP104226, read after 18 hours, read-out: MIC
Experimental: as §1

[21] = tested on: Serratia marcescens CIP 103551; test: MIC microdilution (Table I-1); type: cell-based; details: CIP103551, read after 18 hours
Experimental: as §1

[22] = tested on: Staphylococcus aureus 1199B (overexpression of the NorA efflux pump); test: Efflux pump inhibition assay with sub-inhibitory ciprofloxacin; type: cell-based
Experimental: The efflux pump inhibition potential of the bis-indolic derivatives was tested using two steps. In a first step, the intrinsic antibacterial activity of the compounds was assayed against the following strains:
The following experimental protocol was used: indolic derivatives (initially solubilised in DMSO at 10 mg/mL) were dispensed in a 96-wells microplate by two fold serial dilutions in Muller-Hinton medium (MH, Bio Rad) using a Biomek 2000 (Beckman) handling robot. 100 μL of the bacterial inoculum (an overnight culture at 37° C. in 5 mL MH diluted 100-fold) was then added in each well. The total volume was 200 μL in each well and the final bacteria concentration 10^6 CFU/mL (CFU: colony forming unit). The highest final indolic derivative concentration was 128 mg/L. Growth was assayed with a microplate reader by monitoring absorption at 620 nm after 1, 2, 5, 7 and 24 h incubation at 37° C. In addition, the plates were read visually after 24 hours incubation. Cultures containing 5 μL DMSO were used as growth controls. In addition, two controls containing a sub-inhibitory or a inhibitory antibiotic concentration for the tested strain were performed. The antibiotics used were ampicillin (0.5 and 32 μg/mL) for E. coli, kanamycin (0.5 and 16 μg/mL) for S. aureus ATCC 25923, ciprofloxacin (4 and 64 mg/L) for S. aureus 1199B, ciprofloxacin (0.5 and 2 mg/L) for S. aureus K2378. All experiments were performed in duplicate.
Efflux pump inhibition assays were then performed against resistant Staphylococcus aureus strains SA 1199B and SA K2378 for bis-indolic derivatives. […] The minimal inhibitory concentration (MIC) of the bis-indolic compound allowing a complete inhibition of the bacterial growth in the presence of ciprofloxacin was determined.

[23] = in the presence of ciprofloxacin 4 mg/L (MIC/4)

SMILES | MIC [1] | MIC [2] | MIC [3] | MIC [4] | MIC [5] | MIC [6] | MIC [7] | MIC [8] | MIC [9] | MIC [10] | MIC [11] | MIC [12] | MIC [13] | MIC [14] | MIC [15] | MIC [16] | MIC [17] | MIC [18] | MIC [19] | MIC [21] | further results
CC(NC(=O)C(=O)c1c[nH]c2ccc(Br)cc12)c1c[nH]c2ccc(Br)cc12 (stereo not drawn) [Compound 5, 2-(5-Bromo-1H-indol-3-yl)-N-(1-(5-bromo-1H-indol-3-yl)ethyl)-2-oxoacetamide] | 1 µg/mL (≈ 2.04 µM) | 1 µg/mL (≈ 2.04 µM) | 1 µg/mL (≈ 2.04 µM) | 1 µg/mL (≈ 2.04 µM) | 1 µg/mL (≈ 2.04 µM) | 1 µg/mL (≈ 2.04 µM) | 1 µg/mL (≈ 2.04 µM) | 2 µg/mL (≈ 4.09 µM) | 2 µg/mL (≈ 4.09 µM) | 128 µg/mL (≈ 262 µM) | 64 µg/mL (≈ 131 µM) | > 128 µg/mL | 32 µg/mL (≈ 65.4 µM) | > 128 µg/mL | > 128 µg/mL | 64 µg/mL (≈ 131 µM) | 1 µg/mL (≈ 2.04 µM) | 64 µg/mL (≈ 131 µM) | 32 µg/mL (≈ 65.4 µM) | > 128 µg/mL | MIC [20]: 32 µg/mL (≈ 65.4 µM)
CC(C)(C)OC(=O)NCC(NC(=O)C(=O)c1c[nH]c2ccc(Br)cc12)c1c[nH]c2ccc(Br)cc12 (stereo not drawn) [Compound 4, tert-Butyl(2-(5-bromo-1H-indol-3-yl)-2-(2-(5-bromo-1H-indol-3-yl)-2-oxoacetamido)ethyl) carbamate] | 0.8 µg/mL (≈ 1.32 µM) | 0.8 µg/mL (≈ 1.32 µM) | 0.8 µg/mL (≈ 1.32 µM) | 0.8 µg/mL (≈ 1.32 µM) | 0.8 µg/mL (≈ 1.32 µM) | 1.6 µg/mL (≈ 2.65 µM) | 1.6 µg/mL (≈ 2.65 µM) | 0.8 µg/mL (≈ 1.32 µM) | 1.6 µg/mL (≈ 2.65 µM) | – | – | > 128 µg/mL | – | > 128 µg/mL | > 128 µg/mL | – | 1.6 µg/mL (≈ 2.65 µM) | – | – | > 128 µg/mL | –
O=C(C(=O)N1CCOCC1c1c[nH]c2ccccc12)c1c[nH]c2ccccc12 (stereo not drawn) [Compound 6b, 1-(3-(1H-Indol-3-yl)morpholino)-2-(1H-indol-3-yl)ethane-1,2-dione] | > 128 µg/mL | > 128 µg/mL | > 128 µg/mL | > 128 µg/mL | > 128 µg/mL | > 128 µg/mL | > 128 µg/mL | > 128 µg/mL | > 128 µg/mL | > 128 µg/mL | > 128 µg/mL | > 128 µg/mL | > 128 µg/mL | > 128 µg/mL | > 128 µg/mL | > 128 µg/mL | > 128 µg/mL | > 128 µg/mL | > 128 µg/mL | > 128 µg/mL | MIC [20]: > 128 µg/mL; CMI, mg/L (Ciprofloxacin concentration, mg/L) [22, 23]: 0.5 (4) mg/L
CC(C)(C)OC(=O)NCC(NC(=O)C(=O)c1c[nH]c2ccccc12)c1c[nH]c2ccccc12 (stereo not drawn) [Compound 2, tert-Butyl(2-(2-(1H-indol-3-yl)-2-oxoacetamido)-2-(1H-indol-3-yl)ethyl)carbamate] | > 128 µg/mL | > 128 µg/mL | > 128 µg/mL | > 128 µg/mL | > 128 µg/mL | > 128 µg/mL | > 128 µg/mL | > 128 µg/mL | > 128 µg/mL | > 128 µg/mL | > 128 µg/mL | > 128 µg/mL | > 128 µg/mL | > 128 µg/mL | > 128 µg/mL | > 128 µg/mL | > 128 µg/mL | > 128 µg/mL | > 128 µg/mL | > 128 µg/mL | MIC [20]: > 128 µg/mL; CMI, mg/L (Ciprofloxacin concentration, mg/L) ([22]; in the presence of ciprofloxacin 2 mg/L (MIC/8)): 2 (2) mg/L; CMI, mg/L (Ciprofloxacin concentration, mg/L) [22, 23]: 0.5 (4) mg/L
CC(C)(C)OC(=O)N1CCN(C(=O)C(=O)c2c[nH]c3ccc(Br)cc23)C(c2c[nH]c3ccc(Br)cc23)C1 (stereo not drawn) [Compound 6f, tert-Butyl 3-(5-bromo-1H-indol-3-yl)-4-(2-(5-bromo-1H-indol-3-yl)-2-oxoacetyl) piperazine-1-carboxylate] | > 128 µg/mL | 2 to 4 µg/mL (≈ 3.17 to 6.35 µM) | > 128 µg/mL | > 128 µg/mL | > 128 µg/mL | > 128 µg/mL | > 128 µg/mL | > 128 µg/mL | > 128 µg/mL | > 128 µg/mL | > 128 µg/mL | > 128 µg/mL | > 128 µg/mL | > 128 µg/mL | > 128 µg/mL | > 128 µg/mL | > 128 µg/mL | > 128 µg/mL | > 128 µg/mL | > 128 µg/mL | MIC [20]: > 128 µg/mL; CMI, mg/L (Ciprofloxacin concentration, mg/L) [22, 23]: <0.25 (4) mg/L
